Experimental data from patent US20040024024A1, “Aromatic sulfone hydroxamates and their use as protease inhibitors” (priority 2001, published 2004).

Columns and labels:
Human recombinant MMP-2 = target: T1, Human recombinant MMP-2 (Homo sapiens, UniProt P08253); experiment: In vitro MMP inhibition, IC50 determination (fluorogenic substrate I); type: biochemical
T1 construct: made in house; host or cells: MMP-2-transfected p2AHT2 cells
T1 sequence (P08253 110-660): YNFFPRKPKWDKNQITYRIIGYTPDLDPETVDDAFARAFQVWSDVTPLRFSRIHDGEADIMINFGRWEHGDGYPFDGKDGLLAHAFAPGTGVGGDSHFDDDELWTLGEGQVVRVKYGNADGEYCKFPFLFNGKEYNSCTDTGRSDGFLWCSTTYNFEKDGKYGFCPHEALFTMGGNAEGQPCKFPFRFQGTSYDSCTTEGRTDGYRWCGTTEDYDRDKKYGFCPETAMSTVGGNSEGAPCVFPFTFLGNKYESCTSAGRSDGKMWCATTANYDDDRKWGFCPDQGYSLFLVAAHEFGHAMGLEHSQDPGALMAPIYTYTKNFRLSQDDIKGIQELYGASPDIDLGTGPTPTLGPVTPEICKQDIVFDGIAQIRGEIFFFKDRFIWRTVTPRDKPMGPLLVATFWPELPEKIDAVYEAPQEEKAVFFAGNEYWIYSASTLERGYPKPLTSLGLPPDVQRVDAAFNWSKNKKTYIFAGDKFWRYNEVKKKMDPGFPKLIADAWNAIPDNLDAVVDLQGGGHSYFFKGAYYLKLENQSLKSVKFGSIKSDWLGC
Summary of the method: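 IC50 was derived from the concentration-dependent fall in fluorescence (ex 328, em 415 nm) on Gly-Leu cleavage of 4 μM MCA/Dpa-quenched substrate I. Assays ran at room temperature in pH 7.5 Tris/NaCl/CaCl2/Brij buffer with MMP-2 activated by trypsin or APMA; inhibitors were diluted from 1% DMSO stocks.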

Human recombinant MMP-13 = target: T2, Human recombinant MMP-13 (Homo sapiens, UniProt P45452); experiment: as above; type: biochemical
T2 construct: made in house; host or cells: baculovirus / insect cells
Summary of the method: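 Fluorescence at 415 nm (excitation 328 nm) reports Gly-Leu cleavage of 4 μM quenched methoxycoumarin peptide substrate I. Human recombinant MMP-13, activated by trypsin or APMA, was incubated at room temperature with varied inhibitor concentrations in pH 7.5 Tris/NaCl/CaCl2 buffer; IC50 derived from reduced fluorescence.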

[1] = value outside parentheses (Ki in parenthesis)

| SMILES | IC50 (Human recombinant MMP-2; [1]) [nM] | IC50 (Human recombinant MMP-13; [1]) [nM] | IC50 (Human recombinant MMP-2; value outside parentheses) [nM] | IC50 (Human recombinant MMP-13; value outside parentheses) [nM] |
| --- | --- | --- | --- | --- |
| O=C(NCCCOc1ccc(S(=O)(=O)C2(C(=O)NO)CCOCC2)cc1)C1CCCC1 [Example 400] | 326 | 9 |  |  |
| CCCC(C)(C)C(=O)NCCCOc1ccc(S(=O)(=O)C2(C(=O)NO)CCOCC2)cc1 [Example 402] | 454 | 30 |  |  |
| CC(C)(C(=O)NCCCOc1ccc(S(=O)(=O)C2(C(=O)NO)CCOCC2)cc1)c1ccccc1 [Example 404] | 254 | 15 |  |  |
| O=C(NO)C1(S(=O)(=O)c2ccc(OCCCSc3nc4c(Cl)cc(Cl)cc4o3)cc2)CCOCC1 [Example 407] | 285 | 25 |  |  |
| O=C(NO)C1(S(=O)(=O)c2ccc(OCCCN3CCCc4ccccc43)cc2)CCOCC1 [Example 412] | 313 | 41 |  |  |
| O=C(NO)C1(S(=O)(=O)c2ccc(OCCCCN3CCCc4ccccc43)cc2)CCOCC1 [Example 413] | 61 | 8 |  |  |
| O=C(NO)C1(S(=O)(=O)c2ccc(OCCCCCN3CCCc4ccccc43)cc2)CCOCC1 [Example 414] | 37 | 14 |  |  |
| COc1ccc2c(c1)CCCN2CCCCCOc1ccc(S(=O)(=O)C2(C(=O)NO)CCOCC2)cc1 [Example 416] | 17 | 8.6 |  |  |
| O=C(NCCCOc1ccc(S(=O)(=O)C2(C(=O)NO)CCOCC2)cc1)c1ccccc1 [Example 417] | 315 | 2.6 |  |  |
| COc1ccc(S(=O)(=O)NCCCOc2ccc(S(=O)(=O)C3(C(=O)NO)CCOCC3)cc2)cc1 [Example 419] | 120 | 4 |  |  |
| COc1ccc(C(=O)N2CCCC(COc3ccc(S(=O)(=O)C4(C(=O)NO)CCOCC4)cc3)C2)cc1 (stereo not drawn) [Example 421] | 649 | 256 |  |  |
| COc1ccc(C(=O)N2CC[C@@H](Oc3ccc(S(=O)(=O)C4(C(=O)NO)CCOCC4)cc3)C2)cc1 [Example 422] | 7200 | 1480 |  |  |
| O=C(c1ccc(OC(F)(F)F)cc1)N1CC[C@@H](Oc2ccc(S(=O)(=O)C3(C(=O)NO)CCOCC3)cc2)C1 [Example 423] | 9000 | 1590 |  |  |
| O=C(c1cccc(C(F)(F)F)c1)N1CC[C@@H](Oc2ccc(S(=O)(=O)C3(C(=O)NO)CCOCC3)cc2)C1 [Example 424] | 485 | 192 |  |  |
| O=C(C1CCCCC1)N1CC[C@@H](Oc2ccc(S(=O)(=O)C3(C(=O)NO)CCOCC3)cc2)C1 [Example 425] | > 10000 | 3310 |  |  |
| COc1ccc(C(=O)N2CC[C@@H](Oc3ccc(S(=O)(=O)C4(C(=O)NO)CCOCC4)cc3)C2)cc1OC [Example 426] | > 10000 | 5150 |  |  |
| CC(=O)N1CC[C@@H](Oc2ccc(S(=O)(=O)C3(C(=O)NO)CCOCC3)cc2)C1 [Example 427] | 251 | 114 |  |  |
| COc1ccc(S(=O)(=O)CCCCOc2ccc(S(=O)(=O)C3(C(=O)NO)CCOCC3)cc2)cc1 [Example 428] | 20 | 1.4 |  |  |
| COc1ccc(SCC(C)(C)COc2ccc(S(=O)(=O)C3(C(=O)NO)CCOCC3)cc2)cc1 [Example 430] | 2700 | 195 |  |  |
| COc1ccc(S(=O)(=O)C[C@@H](C)COc2ccc(S(=O)(=O)C3(C(=O)NO)CCOCC3)cc2)cc1 [Example 431] | 115 | 4 |  |  |
| COc1ccc(SC[C@@H](C)COc2ccc(S(=O)(=O)C3(C(=O)NO)CCOCC3)cc2)cc1 [Example 432] | 7 | 1.5 |  |  |
| COc1ccc(S(=O)(=O)C[C@H](C)COc2ccc(S(=O)(=O)C3(C(=O)NO)CCOCC3)cc2)cc1 [Example 433] | 220 | 7 |  |  |
| COc1ccc(SC[C@H](C)COc2ccc(S(=O)(=O)C3(C(=O)NO)CCOCC3)cc2)cc1 [Example 434] | 1.1 | 0.6 |  |  |
| O=C(NO)C1(S(=O)(=O)c2ccc(OCCCOc3ccccc3C(F)(F)F)cc2)CCOCC1 [Example 444] | 8.9 | 7.6 |  |  |
| CCCCOc1ccc(OCCCOc2ccc(S(=O)(=O)C3(C(=O)NO)CCOCC3)cc2)cc1 [Example 446] | 76 | 6.6 |  |  |
| O=C(NO)C1(S(=O)(=O)c2ccc(OCCCCO)cc2)CCOCC1 [Example 451] | 4.7 | 9 |  |  |
| O=C(NO)C1(S(=O)(=O)c2ccc(OCCCCCO)cc2)CCOCC1 [Example 452] | 2.2 | 14.8 |  |  |

| SMILES | IC50 (Human recombinant MMP-2; [1]) [nM] | IC50 (Human recombinant MMP-13; [1]) [nM] | IC50 (Human recombinant MMP-2; value outside parentheses) [nM] | IC50 (Human recombinant MMP-13; value outside parentheses) [nM] |
| --- | --- | --- | --- | --- |
| COCC(C)(C)COc1ccc(S(=O)(=O)C2(C(=O)NO)CCOCC2)cc1 [Example 455] | 900 | 690 |  |  |
| CCOCC(C)(C)COc1ccc(S(=O)(=O)C2(C(=O)NO)CCOCC2)cc1 [Example 456] | 425 | 350 |  |  |
| O=C(NO)C1(S(=O)(=O)c2ccc(OCCCCCc3ccc4ccccc4c3)cc2)CCOCC1 [Example 464] | 46 | 1.4 |  |  |
| C=CCCCOc1ccc(S(=O)(=O)C2(C(=O)NO)CCOCC2)cc1 [Example 481] | 1.3 | 2 |  |  |
| COC(=O)c1ccccc1S(=O)(=O)N1CC(Oc2ccc(S(=O)(=O)C3(C(=O)NO)CCOCC3)cc2)C1 [Example 482] | 3300 | 40 |  |  |
| COc1ccc(OC)c(S(=O)(=O)N2CC(Oc3ccc(S(=O)(=O)C4(C(=O)NO)CCOCC4)cc3)C2)c1 [Example 484] | 640 | 12 |  |  |
| COc1ccc(OC)c(S(=O)(=O)NCC(CCl)Oc2ccc(S(=O)(=O)C3(C(=O)NO)CCOCC3)cc2)c1 (stereo not drawn) [Example 485] | 4000 | 64 |  |  |
| COc1cc2c(cc1OC)CN(C(=O)NCCCOc1ccc(S(=O)(=O)C3(C(=O)NO)CCOCC3)cc1)CC2 [Example 496] |  |  | 242 | 8.4 |
| O=C(NCCCOc1ccc(S(=O)(=O)C2(C(=O)NO)CCOCC2)cc1)N1CCOCC1 [Example 497] |  |  | 1450 | 23.5 |
| COc1ccc(NC(=O)NCCCOc2ccc(S(=O)(=O)C3(C(=O)NO)CCOCC3)cc2)c(C)c1 [Example 498] |  |  | 160 | 14.8 |
| O=C(NO)C1(S(=O)(=O)c2ccc(OCCc3cccc(-c4cncnc4)c3)cc2)CCOCC1 [Example 521] |  |  | 62 | 5.8 |
| CCN1CCC(C(=O)NO)(S(=O)(=O)c2ccc(OCCCSc3nc4ccccc4o3)cc2)CC1 [Example 525] |  |  | 7.5 | 1.5 |
| O=C(Cc1nn[nH]n1)NCCOc1ccc(S(=O)(=O)C2(C(=O)NO)CCOCC2)cc1 [Example 564] |  |  | 145 | 19.4 |
| O=C(Cc1nnn(Cc2ccccc2)n1)NCCOc1ccc(S(=O)(=O)C2(C(=O)NO)CCOCC2)cc1 [Example 565] |  |  | 14 | 1.6 |
| Cn1cnc(CC(=O)NCCOc2ccc(S(=O)(=O)C3(C(=O)NO)CCOCC3)cc2)c1 [Example 566] |  |  | 65.7 | 18.8 |
| O=C(NO)C1(S(=O)(=O)c2ccc(OCCCc3nnc(-c4ccncc4)o3)cc2)CCOCC1 [Example 568] |  |  | 21 | 1.5 |
| O=C(CCCOc1ccc(S(=O)(=O)C2(C(=O)NO)CCOCC2)cc1)Nc1cccc(-c2ccccc2)c1 [Example 571] |  |  | 11.9 | 1.6 |
| CC(C)(C)c1cccc(NC(=O)CCCOc2ccc(S(=O)(=O)C3(C(=O)NO)CCOCC3)cc2)c1 [Example 572] |  |  | 37.3 | 4.7 |
| O=C(NO)C1(S(=O)(=O)c2ccc(OCCCc3cc(C(F)(F)F)cc(C(F)(F)F)c3)cc2)CCOCC1 [Example 573] |  |  | 1710 | 75.1 |
| O=C(NO)C1(S(=O)(=O)c2ccc(OCCCc3cccnc3)cc2)CCOCC1 [Example 575] |  |  | 8.4 | 2 |
| O=C(CCCOc1ccc(S(=O)(=O)C2(C(=O)NO)CCOCC2)cc1)N1CCc2ccccc21 [Example 577] |  |  | 48.2 | 1.2 |
| CC(C)Oc1cccc(NC(=O)CCCOc2ccc(S(=O)(=O)C3(C(=O)NO)CCOCC3)cc2)c1 [Example 583] |  |  | 15.7 | 1.6 |
| COc1cc(CCCOc2ccc(S(=O)(=O)C3(C(=O)NO)CCOCC3)cc2)cc(OC)c1 [Example 585] |  |  | 85.4 | 4 |
| CC(=O)c1cccc(CCCOc2ccc(S(=O)(=O)C3(C(=O)NO)CCOCC3)cc2)c1 [Example 586] |  |  | 10.1 | 0.6 |
| COc1ccc(C(=N)NCCCOc2ccc(S(=O)(=O)C3(C(=O)NO)CCOCC3)cc2)cc1 [Example 588] |  |  | 94.9 | 15 |
| O=C(NCCOc1ccc(S(=O)(=O)C2(C(=O)NO)CCOCC2)cc1)c1nc2ccccc2s1 [Example 589] |  |  | 9.9 | 0.4 |
| O=C(NO)C1(S(=O)(=O)c2ccc(OCCn3nnc4ccccc4c3=O)cc2)CCOCC1 [Example 590] |  |  | 858 | 48 |
